# Data: patent publication US12357624B2, “Low dose pridopidine for Parkinson's Disease and other diseases associated with parkinsonism” (PRILENIA NEUROTHERAPEUTICS LTD., priority 2019, dated 2025)
# Like-named read-outs stand apart in the source and are kept apart here.
# Experiments:
# 6-OHDA-lesioned mice = tested on: 6-OHDA-lesioned mice
# Description: The study was performed in male C57B16J mice weighing approx. 25 g and having an age of 8 to 9 weeks at the beginning of the experiments. A total of 65 wild-type mice and 52 S1R knockout (KO) mice were used. S1R knockout mice and wild-type littermates (both genders) were bred on a C57BL6J background. Our S1R KO line is derived from the well-characterized Sigmar1^Gt(OST422756)Lex mouse strain distributed by the Mutant Mouse Resource Regional Centre (MMRRC) The mice were housed under a 12-h light/dark cycle with free access to food and water.
# Lesions were performed according to previously described procedures [Francardo V, Bez F, Wieloch T, Nissbrandt H, Ruscher K, Cenci 33. MA. […] Brain: A Journal of Neurology. […] 6-OHDA-HCl (Sigma-Aldrich AB, Stockholm, Sweden) was freshly dissolved in 0.02% ascorbate-saline at the concentration of 3.2 mg free base per milliliter. […] The solution was injected via a glass capillary (tip diameter−50 (1 m) at the rate of 0.5 (1 L/min, and the capillary was left in place for 2 mi after each injection.
# The first injection was given immediately upon completion of lesion surgery. […] Forelimb use asymmetry during vertical exploration provides a validated measure of forelimb akinesia in hemiparkinsonian rodents [Lundblad M, Andersson M, Winkler C, Kirik D, Wierup N, Cenci M A. Pharmacological validation of behavioural measures of akinesia and dyskinesia in a rat model of Parkinson's disease. The European Journal of Neuroscience. […] The test was executed as in [Francardo V, Bez F, Wieloch T, Nissbrandt H, Ruscher K, Cenci 33. MA. […] The number of supporting wall contacts performed independently by the paw contralateral to the lesion was expressed as a percentage of all supporting wall contacts in each session.
# [1] = tested on: TH-immunoreactive fibers in the lateral striatum; conditions: chronic
# Description: Mice allocated to immunohistochemistry were perfusion-fixed on the day after the last rug/saline administration (interval of approx. 20 h from the last injection). Animals were deeply anesthetized with sodium pentobarbital (240 mg/kg, i.p.) and transcardially perfused with 0.9% saline solution, followed by ice-cold buffered 4% paraformaldehyde (pH 7.4). […] Coronal sections of 30 (1 m thickness were cut on a sliding microtome and stored at −20° C. in a nonfreezing solution (30% ethylene glycol and 30% glycerol in 0.1 M phosphate buffer).
# Immunohistochemistry and quantitative analyses were performed according to established protocols [Francardo V, Bez F, Wieloch T, Nissbrandt H, Ruscher K, Cenci 33. MA. Neurobiology of Disease. […] Experimental Eye Research. […] (rabbit anti-TH antiserum from Pel-Freez, Rogers, AR, 1:1000) and Cluster of Differentiation 68 (CD68) (rat anti-CD68 antiserum from AbD Serotec, Kidlington, Oxfordshire, UK; 1:1000). Quantitative analyses were performed by an experimentally blinded investigator using the following methods.
# Results were expressed as the total number of TH-immunopositive pixels per sample area (averaged across areas). […] The high-magnification analysis of TH fibers on random sample areas was complemented by optical density (O.D.) measurements of TH immunostaining across the entire dorsolateral and ventro-lateral striatum. […]
# [2] = tested on: TH immunostaining, ventrolateral and dorsolateral striatum
# Excerpt: Results were expressed as the total number of TH-immunopositive pixels per sample area (averaged across areas). […] The high-magnification analysis of TH fibers on random sample areas was complemented by optical density (O.D.) measurements of TH immunostaining across the entire dorsolateral and ventro-lateral striatum. Although this method is much less sensitive than the actual fiber analysis [Francardo V, Bez F, Wieloch T, Nissbrandt H, Ruscher K, Cenci 33. MA. […] Brain: A Journal of Neurology.
# The O.D. analysis was carried out in the same rostrocaudal levels using NIH Image J Software, as described in [Francardo V, Recchia A, Popovic N, Andersson D, Nissbrandt H, Cenci M A. Impact of the lesion procedure on the profiles of motor impairment and molecular responsiveness to L-DOPA in the 6-hydroxydopamine mouse model of Parkinson's disease. Neurobiology of Disease.
# [3] = tested on: STHdhQ7/7 cells expressing Htt96Q-mCherry or Htt20Q-mCherry; conditions: cells without aggregates or cells expressing Htt20Q-mCherry
# Excerpt: H2a-GFP was transiently co-expressed with Htt20Q-mCherry or Htt96Q-mCherry (exon 1) in STHdhQ7/7 cells. H2a-GFP aggregation is a marker of cell stress. […] For comparative purposes, 100% represents H2a-GFP relative intensity in untreated cells showing Htt96Q-mCherry aggregates, 0% is H2a-GFP relative intensity in untreated cells without Htt96Q-cherry aggregates.
# ER stress levels can be measured using H2a-GFP as protein indicator of early stages of ER stress. H2a-GFP is a misfolded secretory protein which in response to ER stress accumulates. The STHdhQ7/7 is a striatal derived cell line from a knock in transgenic mouse containing homozygous humanized Huntingtin gene (HTT) with 7 polyglutamine repeats (wild type). STHdhQ7/7 cells are transfected with either Htt96Q-mCherry (mutant, mimics the typical pathogenic expression of Htt in HD patients) or Htt20Q-mCherry (normal) constructs. When the polyQ-expanded Htt protein (96Q) exonl fused to fluorescent mCherry protein is expressed, the levels and aggregation of the protein in individual cells can be monitored using a fluorescent microscope.
# S1R = S1R (Mus musculus, UniProt O55242); conditions: both doses of 0.3 and 1 mg/kg; judged plausible from Ki and free brain concentration
# [4] = tested on: B104 neuroblastoma cell line; conditions: 100 nM and 1 μM; vs control untreated cells; cited from earlier work
# SOD1G93A motor neurons = conditions: 0.1 and 1 μM; cited from earlier work
# Chain of S1R (O55242 whole entry): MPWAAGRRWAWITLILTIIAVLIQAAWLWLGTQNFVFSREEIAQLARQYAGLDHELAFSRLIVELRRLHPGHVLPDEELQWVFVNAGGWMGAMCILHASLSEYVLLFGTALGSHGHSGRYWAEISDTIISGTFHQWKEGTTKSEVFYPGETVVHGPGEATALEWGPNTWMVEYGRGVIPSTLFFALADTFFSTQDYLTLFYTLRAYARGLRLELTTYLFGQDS
smiles,measurement,setting,value
"CCCN1CCC(c2cccc(S(C)(=O)=O)c2)CC1 [pridopidine, 4-[3-(methylsulfonyl)phenyl]-1-propyl-piperidine]","cylinder test, contralateral forelimb use",6-OHDA-lesioned mice; 0.3 mg/kg s.c. daily,reaching levels of performance comparable with sham-control values on weeks 4 and 5
same,"cylinder test, contralateral forelimb use",6-OHDA-lesioned mice; 1.0 mg/kg s.c. daily,did not restore contralateral forelimb use in the cylinder test
same,"cylinder test, contralateral forelimb use, difference vs sham","6-OHDA-lesioned mice; 1.0 mg/kg s.c. daily, week 5",~33%
same,"cylinder test, contralateral forelimb use, difference vs sham","6-OHDA-lesioned mice; week 1, pridopidine-treated mice (0.3 or 1.0 mg/kg)",~40%
same,"TH fiber profiles, increase in median values relative to saline",[1]; 0.3 mg/kg s.c. daily,about 15 fold
same,TH fiber profiles vs saline,[1]; 1.0 mg/kg s.c. daily,did not achieve statistical significance
same,TH O.D. vs saline,"[2]; 0.3 mg/kg, dorsolateral striatum","significant, albeit smaller increase"
same,TH O.D. above saline control levels,"[2]; 0.3 mg/kg, ventrolateral striatum",greater than twofold increase
same,TH O.D. vs saline,"[2]; 1 mg/kg, dorsolateral striatum",only a trend
same,TH O.D. vs saline,"[2]; 1 mg/kg, ventrolateral striatum",trend towards an increase that did not reach statistical significance
same,H2a-GFP levels,[3],does not alter H2a-GFP levels
same,occupancy of the S1R at Cmax,S1R,100%
same,BDNF secretion,[4],enhanced BDNF secretion
same,BDNF axonal transport velocity,SOD1G93A motor neurons,significantly accelerates the velocity
